Measured values as given in patent US20260250290A1 (BRISTOL-MYERS SQUIBB COMPANY, priority 2023, published 2026).
Where a name gives a salt, the structure may show the parent alone.

Biological target: T1, SGK1 (Homo sapiens, UniProt O00141)
T1 sequence (O00141 1-431): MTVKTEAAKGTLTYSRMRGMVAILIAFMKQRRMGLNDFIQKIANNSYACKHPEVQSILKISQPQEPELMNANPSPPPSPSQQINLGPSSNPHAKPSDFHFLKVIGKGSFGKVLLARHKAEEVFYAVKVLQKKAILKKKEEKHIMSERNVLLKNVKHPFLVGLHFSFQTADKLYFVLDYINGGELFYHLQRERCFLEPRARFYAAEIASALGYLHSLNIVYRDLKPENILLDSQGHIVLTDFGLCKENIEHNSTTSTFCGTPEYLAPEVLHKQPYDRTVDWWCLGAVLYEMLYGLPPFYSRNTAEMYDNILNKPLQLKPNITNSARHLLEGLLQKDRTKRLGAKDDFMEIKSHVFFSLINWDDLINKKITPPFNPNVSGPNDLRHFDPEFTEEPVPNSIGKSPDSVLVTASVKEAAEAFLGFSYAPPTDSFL
Test: SGK1 inhibition Assay B (Echo mass spectrometry of phosphorylated peptide product)
Type: biochemical
Details: 60 min at room temperature

SMILES | IC50
Cc1nc(O[C@@H]2C[C@H]3CC[C@@H](C2)N3C)c(C(=O)N[C@@H]2CCCN(c3cc(-c4ccc5c(c4)CNC5=O)n4ncnc(N)c34)C2)s1 [Example 961, N-((R)-1-(4-amino-7-(1-oxoisoindolin-5-y1)pyrrolo[2,1-f][1,2,4]triazin-5-y1)piperidin-3-y1)-2-methy1-4-(((IR,3s,5S)-8-methyl-8-azabicyclo[3.2.1]octan-3-yl)oxy)thiazole-5-carboxamide] | 5 nM
Cc1nc(O[C@H]2CC[C@@H](NCC(C)(C)O)CC2)c(C(=O)N[C@@H]2CCCN(c3cc(-c4ccc(C(N)=O)c(F)c4)n4ncnc(N)c34)C2)s1 [Example 978, N—((R)-1-(4-Amino-7-(4-carbamoyl-3-fluorophenyl)pyrrolo[2,1-f][1,2,4]triazin-5-yl)piperidin-3-yl)-4-(((1s,4S)-4-((2-hydroxy-2-methylpropyl)amino)cyclohexyl)oxy)-2-methylthiazole-5-carboxamide] | 3 nM
[2H]C([2H])([2H])N(C1CCC(Oc2nc(C)sc2C(=O)N[C@@H]2CCCN(c3cc(-c4ccnc(OC)n4)n4ncnc(N)c34)C2)CC1)C([2H])([2H])[2H] (stereo partly drawn) [Example 1031, (R)—N-(1-(4-amino-7-(2-methoxypyrimidin-4-yl)pyrrolo[2,1-f][1,2,4]triazin-5-yl)piperidin-3-yl)-4-((4-(bis(methyl-d3)amino)cyclohexyl)oxy)-2-methylthiazole-5-carboxamide] | 1.1 nM
Cc1cc(-c2cc(N3CCC[C@@H](NC(=O)c4cccc(N5CC6(C5)CN(C(C)C)C6)n4)C3)c3c(N)ncnn23)ccc1-n1cnnn1 [Example 822] | 4 nM
Cc1cc(O[C@@H]2C[C@H]3CC[C@@H](C2)N3C)c(C(=O)N[C@@H]2CCCN(c3cc(-c4cnc(-n5cnnn5)c(F)c4)n4ncnc(N)c34)C2)s1 [Example 845, N-((R)-1-(4-amino-7-(5-fluoro-6-(1H-tetrazol-1-yl)pyridin-3-yl)pyrrolo[2,1-f][1,2,4]triazin-5-yl)piperidin-3-yl)-5-methyl-3-(((1R,3s,5S)-8-methyl-8-azabicyclo[3.2.1]octan-3-yl)oxy)thiophene-2-carboxamide, TFA salt] | 3 nM
Cc1nc(O[C@@H]2C[C@H]3CC[C@@H](C2)N3C(C)C)c(C(=O)N[C@@H]2CCCN(c3cc(-c4ccc(C(N)=O)c(OCC(F)F)n4)n4ncnc(N)c34)C2)s1 [Example 956, N—((R)-1-(4-Amino-7-(5-carbamoyl-6-(2,2-difluoroethoxy)pyridin-2-yl)pyrrolo[2,1-f][1,2,4]triazin-5-yl)piperidin-3-yl)-4-(((1R,3s,5S)-8-isopropyl-8-azabicyclo[3.2.1]octan-3-yl)oxy)-2-methylthiazole-5-carboxamide] | 2 nM
Cc1nc(OC2CCCC(NC(C)C)CCC2)c(C(=O)N[C@@H]2CCCN(c3cc(-c4ccc(C(N)=O)c(F)c4)n4ncnc(N)c34)C2)s1 (stereo partly drawn) [Example 942, (R)—N-(1-(4-Amino-7-(4-carbamoyl-3-fluorophenyl)pyrrolo[2,1-f][1,2,4]triazin-5-yl)piperidin-3-yl)-4-((5-(isopropylamino)cyclooctyl)oxy)-2-methylthiazole-5-carboxamide] | 4 nM
CC(C)N1CC2(CN(c3cccc(C(=O)N[C@@H]4CCCN(c5cc(-c6ccc(S(C)(=O)=O)cc6)n6ncnc(N)c56)C4)n3)C2)C1 [Example 832, (R)-N-(1-(4-amino-7-(4-(methylsulfonyl)phenyl)pyrrolo[2,1-f][1,2,4]triazin-5-yl)piperidin-3-yl)-6-(6-isopropyl-2,6-diazaspiro[3.3]heptan-2-yl)picolinamide] | 12 nM
CC(=O)N1CC=C(c2cc(N3CCC[C@@H](NC(=O)c4sc(Cl)cc4OC4CCC(N5CCOCC5)CC4)C3)c3c(N)ncnn23)C1 (single isomer, unassigned; isomer 1) [Example 936] | 2 nM
CN1CCN(c2cccc(C(=O)N[C@@H]3CCCN(c4cc(-c5ccc(-n6cccn6)cc5)n5ncnc(N)c45)C3)n2)CC1 [Example 808, (R)-N-(1-(7-(4-(1H-pyrazol-1-yl)phenyl)-4-aminopyrrolo[2,1-f][1,2,4]triazin-5-yl)piperidin-3-yl)-6-(4-methylpiperazin-1-yl)picolinamide] | 34 nM
[2H]C([2H])([2H])c1nc(O[C@H]2CC[C@@H](N(C)C)CC2)c(C(=O)N[C@@H]2CCCN(c3cc(C4=C(C)C(=O)OC4)n4ncnc(N)c34)C2)s1 [Example 1016, N—((R)-1-(4-amino-7-(4-methyl-5-oxo-2,5-dihydrofuran-3-yl)pyrrolo[2,1-f][1,2,4]triazin-5-yl)piperidin-3-yl)-4-(((1S,4S)-4-(dimethylamino)cyclohexyl)oxy)-2-(methyl-d3)thiazole-5-carboxamide] | 1 nM
CC(=O)N1CC=C(c2cc(N3CCC[C@@H](NC(=O)c4sc(Cl)cc4O[C@@H]4C[C@H]5CC[C@@H](C4)O5)C3)c3c(N)ncnn23)C1 [Example 988, 3-(((IR,3s.5S)-8-oxabicyclo[3.2.1]octan-3-y1)oxy)-N-((R)-1-(7-(1-acetyl-2,5-dihydro-1H-pyrrol-3-y1)-4-aminopyrrolo[2,1-f][1,2,4]triazin-5-y1)piperidin-3-y1)-5-chlorothiophene-2-carboxamide] | 3 nM
Cc1nc(OC2CCC(N3CCC3)CC2)c(C(=O)N[C@@H]2CCCN(c3cc(C4=CC(=O)OC4)n4ncnc(N)c34)C2)s1 (stereo partly drawn) [Example 998, (R)-N-(1-(4-amino-7-(5-oxo-2,5-dihydrofuran-3-y1)pyrrolo[2,1-f] [1,2,4]triazin-5-yl)piperidin-3-y1)-4-((4-(azetidin-1-yl)cyclohexyl)oxy)-2-methylthiazole-5-carboxamide] | 1.1 nM
Cc1nc(O[C@H]2CC[C@@H](NC3CCOC3)CC2)c(C(=O)N[C@@H]2CCCN(c3cc(-c4ccc(=O)n(CC(F)F)n4)n4ncnc(N)c34)C2)s1 (stereo partly drawn) [Example 980, N—((R)-1-(4-Amino-7-(1-(2,2-difluoroethyl)-6-oxo-1,6-dihydropyridazin-3-yl)pyrrolo[2,1-f][1,2,4]triazin-5-yl)piperidin-3-yl)-2-methyl-4-(((1s,4S)-4-((tetrahydrofuran-3-yl)amino)cyclohexyl)oxy)thiazole-5-carboxamide] | 1 nM
Cc1nc(OC2CCC(NC3CC3)CC2)c(C(=O)N[C@@H]2CCCN(c3cc(-c4ccc(C(N)=O)c(F)c4)n4ncnc(N)c34)C2)s1 (single isomer, unassigned) [Example 941] | 1 nM

The next lines start with the values.

IC50 | SMILES
0.9 nM | Cc1nc(O[C@@H]2CCC[C@H](N(C)C)C2)c(C(=O)N[C@@H]2CCCN(c3cc(-c4ccc(C(N)=O)c(F)c4)n4ncnc(N)c34)C2)s1 (single isomer, unassigned; isomer 1) [Example 939]
1 nM | [2H]C([2H])([2H])Oc1nccc(-c2cc(N3CCC[C@@H](NC(=O)c4sc(C)nc4O[C@H]4CC[C@@H](N(C)C)CC4)C3)c3c(N)ncnn23)n1 [Example 1033, N—((R)-1-(4-amino-7-(2-(methoxy-d3)pyrimidin-4-yl)pyrrolo[2,1-f][1,2,4]triazin-5-yl)piperidin-3-yl)-4-(((1S,4S)-4-(dimethylamino)cyclohexyl)oxy)-2-methylthiazole-5-carboxamide]
0.9 nM | CC(=O)N1CC=C(c2cc(N3CCC[C@@H](NC(=O)c4sc(Cl)cc4OC4CC5COCC(C4)N5)C3)c3c(N)ncnn23)C1 (stereo partly drawn) [Example 986E, 3-((3-Oxa-9-azabicyclo[3.3.1]nonan-7-yl)oxy)-N—((R)-1-(7-(1-acetyl-2,5-dihydro-1H-pyrrol-3-yl)-4-aminopyrrolo[2,1-f][1,2,4]triazin-5-yl)piperidin-3-yl)-5-chlorothiophene-2-carboxamide]
0.9 nM | CCC(C)(C)N[C@H]1CC[C@@H](Oc2nc(C)sc2C(=O)N[C@@H]2CCCN(c3cc(-c4ccnc(OC)n4)n4ncnc(N)c34)C2)CC1 [Example 1030, (R)—N-(1-(4-amino-7-(2-methoxypyrimidin-4-yl)pyrrolo[2,1-f][1,2,4]triazin-5-yl)piperidin-3-yl)-2-methyl-4-((4-(tert-pentylamino)cyclohexyl)oxy)thiazole-5-carboxamide]
0.8 nM | CCC(CC)N[C@H]1CC[C@@H](Oc2nc(C)sc2C(=O)N[C@@H]2CCCN(c3cc(C4=CC(=O)OC4)n4ncnc(N)c34)C2)CC1 [Example 1003, N—((R)-1-(4-amino-7-(5-oxo-2,5-dihydrofuran-3-yl)pyrrolo[2,1-f][1,2,4]triazin-5-yl)piperidin-3-yl)-2-methyl-4-(((1S,4S)-4-(pentan-3-ylamino)cyclohexyl)oxy)thiazole-5-carboxamide]
0.7 nM | Cc1nc(OC2CCC(NC(C)(C)C)CC2)c(C(=O)N[C@@H]2CCCN(c3cc(-c4ccc(C(N)=O)c(F)n4)n4ncnc(N)c34)C2)s1 (stereo partly drawn) [Example 1056, (R)—N-(1-(4-amino-7-(5-carbamoyl-6-fluoropyridin-2-yl)pyrrolo[2,1-f][1,2,4]triazin-5-yl)piperidin-3-yl)-4-((4-(tert-butylamino)cyclohexyl)oxy)-2-methylthiazole-5-carboxamide]
0.8 nM | Cc1nc(OC2CC3CC2CN3C(C)C)c(C(=O)N[C@@H]2CCCN(c3cc(-c4ccc(-n5cnnn5)c(F)c4)n4ncnc(N)c34)C2)s1 (single isomer, unassigned) [Example 949]
0.7 nM | COCC(C)(C)NC1CCC(Oc2nc(C)sc2C(=O)N[C@@H]2CCCN(c3cc(C4=CC(=O)OC4)n4ncnc(N)c34)C2)CC1 (stereo partly drawn) [Example 1000, (R)—N-(1-(4-amino-7-(5-oxo-2,5-dihydrofuran-3-yl)pyrrolo[2,1-f][1,2,4]triazin-5-yl)piperidin-3-yl)-4-((4-((1-methoxy-2-methylpropan-2-yl)amino)cyclohexyl)oxy)-2-methylthiazole-5-carboxamide]
